Data: patent publication US5990122A, “Quinolone- and naphthyridonecarboxylic acid derivatives” (Bayer Aktiengesellschaft, priority 1994, dated 1999)
≈ marks a conversion by molar mass, not a printed value. Where two headings read alike, the source gives them in different places.

Experiments:
Format in all cases: cell-based
Bac. fragilis ES 25 = assay: minimum inhibitory concentration (MIC), series dilution method on Iso-Sensitest agar; conditions: about 20 hours
Method: (§1) The minimum inhibitory concentrations (MIC) were determined by a series dilution method on Iso-Sensitest agar (Oxoid). For each test substance, a series of agar plates each comprising concentrations of the active compound decreasing by double dilution in each case was prepared. The agar plates were inoculated with a multipoint inoculator (Denley). Overnight cultures of the pathogens which had been diluted beforehand such that each inoculation point comprised about 10^4 colony-forming particles were used for the inoculation. The inoculation agar plates were incubated at 37° C. and the germ growth was read off after about 20 hours. The MIC value (μg/ml) indicated the lowest active compound concentration at which no growth was detectable with the naked eye.

E. coli Neumann = assay: as above; conditions: 37° C., about 20 hours
Method: as §1

Staph. aureus 133 = assay: as above; conditions: 37° C., about 20 hours
Method: as §1

Ps. aeruginosa Walter = assay: as above; conditions: 37° C., about 20 hours
Method: as §1

Staph. aureus ICB 25701 = assay: as above; conditions: about 20 hours
Method: as §1

[1] = inhibition of DNA synthesis in cells from ovaries of the Chinese hamster (CHO-KI), genotoxic potential, fluorophotometric; conditions: hamster, cho-k1 cells, measure of the genotoxic potential, read-out: ID50 (concentration at which DNA synthesis in CHO-KI cells is inhibited by 50%)
Text: (§2) The following Tables 1 and 2 show the minimum inhibitory concentrations as a measure of the antibacterial activity and the ID50 values as a measure of the genotoxic potential of a substance both for compounds according to the invention and for reference compounds from the prior art (EP 520 240). The compounds according to the invention are distinguished in particular by the fact that they have lower interactions with mammalian DNA compared with the compounds according to the prior art. The ID50 is understood as meaning the concentration of a substance at which DNA synthesis in cells from ovaries of the Chinese hamster (CHO-KI) is inhibited by 50%. This value is determined after incubation of the corresponding substances in decreasing dilution stages over defined periods of time. For this, the DNA synthesis in CHO-KI cells is determined in comparison with controls by means of fluorophotometric methods.

CHO-KI cells = assay: as above; conditions: measure of the genotoxic potential
Text: as §2

[2] = Bacteroides fragilis, ES25, 37° C., read-out: MIC
[3] = Escherichia coli, read-out: MIC
[4] = Staphylococcus aureus, read-out: MIC
[5] = Pseudomonas aeruginosa, read-out: MIC
[6] = Staphylococcus aureus, ICB25701, 37° C., read-out: MIC

SMILES: NC12C=CC(CC1)C1CN(c3c(F)cc4c(=O)c(C(=O)O)cn(C5CC5)c4c3C(F)(F)F)CC12 (centres unmarked) [Example 6, 7-(1-Amino-4-aza-tricyclo[5.2.2.0^2,6]undec-8-en-4-yl)-1-cyclopropyl-6-fluoro-1,4-dihydro-4-oxo-8-trifluoromethyl-3-quinolinecarboxylic acid]
- MIC (Bac. fragilis ES 25; [2]): 0.25 µg/mL (≈ 0.524 µM)
- MIC (E. coli Neumann; [3]): 0.06 µg/mL (≈ 0.126 µM)
- MIC (Staph. aureus 133; [4]): 0.015 µg/mL (≈ 0.0314 µM)
- MIC (Ps. aeruginosa Walter; [5]): 4 µg/mL (≈ 8.38 µM)
- MIC (Staph. aureus ICB 25701; [6]): 0.125 µg/mL (≈ 0.262 µM)
- IC50 [1]: 10 µg/mL (≈ 20.9 µM)

SMILES: NC12C=CC(CC1)C1CN(c3c(F)cc4c(=O)c(C(=O)O)cn(C5CC5)c4c3Cl)CC12 (centres unmarked) [Example 3, 7-(1-Amino-4-aza-tricyclo[5.2.2.0^2,6]undec-8-en-4-yl)-8-chloro-1-cyclopropyl-6-fluoro-1,4-dihydro-4-oxo-3-quinoline-carboxylic acid]
- MIC (Bac. fragilis ES 25; [2]): 0.125 µg/mL (≈ 0.282 µM)
- MIC (E. coli Neumann; [3]): 0.015 µg/mL (≈ 0.0338 µM)
- MIC (Staph. aureus 133; [4]): 0.015 µg/mL (≈ 0.0338 µM)
- MIC (Ps. aeruginosa Walter; [5]): 0.5 µg/mL (≈ 1.13 µM)
- MIC (Staph. aureus ICB 25701; [6]): 0.031 µg/mL (≈ 0.0698 µM)
- IC50 [1]: 4 µg/mL (≈ 9.01 µM)

SMILES: NC12CCC(CC1)C1CN(c3c(F)cc4c(=O)c(C(=O)O)cn(C5CC5)c4c3F)CC12 (centres unmarked) [Example 18, 7-(1-amino-4-azatricyclo[5.2.2.0^2,6]undec-4-yl)-1-cyclopropyl-6,8-difluoro-1,4-dihydro-4-oxo-3-quinolinecarboxylic acid]
- MIC (Bac. fragilis ES 25; [2]): 1 µg/mL (≈ 2.33 µM)
- MIC (E. coli Neumann; [3]): 0.03 µg/mL (≈ 0.0699 µM)
- MIC (Staph. aureus 133; [4]): 0.015 µg/mL (≈ 0.0349 µM)
- MIC (Ps. aeruginosa Walter; [5]): 2 µg/mL (≈ 4.66 µM)
- MIC (Staph. aureus ICB 25701; [6]): 0.25 µg/mL (≈ 0.582 µM)
- IC50 [1]: 1 µg/mL (≈ 2.33 µM)

SMILES: COc1c(N2CC3C4CCC(N)(CC4)C3C2)c(F)cc2c(=O)c(C(=O)O)cn(C3CC3)c12 (centres unmarked) [Example 20, 7-(1-amino-4-azatricyclo[5.2.2.0^2,6]undec-4-yl)-1-cyclopropyl-6-fluoro-1,4-dihydro-8-methoxy-4-oxo-3-quinolinecarboxylic acid]
- MIC (Bac. fragilis ES 25; [2]): 1 µg/mL (≈ 2.26 µM)
- MIC (E. coli Neumann; [3]): 0.03 µg/mL (≈ 0.0679 µM)
- MIC (Staph. aureus 133; [4]): 0.015 µg/mL (≈ 0.034 µM)
- MIC (Ps. aeruginosa Walter; [5]): 2 µg/mL (≈ 4.53 µM)
- MIC (Staph. aureus ICB 25701; [6]): 0.125 µg/mL (≈ 0.283 µM)
- IC50 [1]: 16 µg/mL (≈ 36.2 µM)

SMILES: CC1C=CC(N)C2CN(c3c(F)cc4c(=O)c(C(=O)O)cn(C5CC5)c4c3F)CC12 (centres unmarked) [Ref. 1, 7(4-amino-7-methyl-1,3,3a,4,7,7a-hexahydro-isoindol-2-y1)-1-cyclopropyl-6 8-difluoro-1,4-dihydro-4-oxo-3-quinolinecarboxylic acid, reference compound]
- MIC (Bac. fragilis ES 25; [2]): 0.5 µg/mL (≈ 1.2 µM)
- MIC (E. coli Neumann; [3]): 0.015 µg/mL (≈ 0.0361 µM)
- MIC (Staph. aureus 133; [4]): 0.015 µg/mL (≈ 0.0361 µM)
- MIC (Ps. aeruginosa Walter; [5]): 0.5 µg/mL (≈ 1.2 µM)
- MIC (Staph. aureus ICB 25701; [6]): 0.06 µg/mL (≈ 0.144 µM)

SMILES: COc1c(N2CC3C4C=CC(N)(CC4)C3C2)c(F)cc2c(=O)c(C(=O)O)cn(C3CC3)c12 (centres unmarked) [Example 5, 7-(1-amino-4-aza-tricyclo[5.2.2.0^2,6]undec-8-en-4-yl)-1-cyclopropyl-6-fluoro-1,4-dihydro-8-methoxy-4-oxo-3-quinolinecarboxylic acid]
- MIC (Bac. fragilis ES 25; [2]): 0.125 µg/mL (≈ 0.284 µM)
- MIC (E. coli Neumann; [3]): 0.015 µg/mL (≈ 0.0341 µM)
- MIC (Staph. aureus 133; [4]): 0.015 µg/mL (≈ 0.0341 µM)
- MIC (Ps. aeruginosa Walter; [5]): 1 µg/mL (≈ 2.28 µM)
- MIC (Staph. aureus ICB 25701; [6]): 0.031 µg/mL (≈ 0.0705 µM)
- IC50 [1]: 8 µg/mL (≈ 18.2 µM)

SMILES: NC12CCC(CC1)C1CN(c3c(F)cc4c(=O)c(C(=O)O)cn(C5CC5)c4c3Cl)CC12 (centres unmarked) [Example 19, 7-(1-amino-4-azatricyclo-[5.2.2.0^2,6]undec-4-yl)-8-chloro-1-cyclopropyl-6-fluoro-1,4-dihydro-4-oxo-3-quinolinecarboxylic acid]
- MIC (Bac. fragilis ES 25; [2]): 0.125 µg/mL (≈ 0.28 µM)
- MIC (E. coli Neumann; [3]): 0.03 µg/mL (≈ 0.0673 µM)
- MIC (Staph. aureus 133; [4]): 0.015 µg/mL (≈ 0.0336 µM)
- MIC (Ps. aeruginosa Walter; [5]): 1 µg/mL (≈ 2.24 µM)
- MIC (Staph. aureus ICB 25701; [6]): 0.06 µg/mL (≈ 0.135 µM)
- IC50 [1]: 4 µg/mL (≈ 8.97 µM)

SMILES: NC12C=CC(CC1)C1CN(c3c(F)cc4c(=O)c(C(=O)O)cn(C5CC5)c4c3F)CC12 (centres unmarked) [Example 2]
- MIC (Bac. fragilis ES 25; [2]): 0.5 µg/mL (≈ 1.17 µM)
- MIC (E. coli Neumann; [3]): 0.015 µg/mL (≈ 0.0351 µM)
- MIC (Staph. aureus 133; [4]): 0.015 µg/mL (≈ 0.0351 µM)
- MIC (Ps. aeruginosa Walter; [5]): 0.5 µg/mL (≈ 1.17 µM)
- MIC (Staph. aureus ICB 25701; [6]): 0.062 µg/mL (≈ 0.145 µM)
- IC50 [1]: 1 µg/mL (≈ 2.34 µM)

SMILES: COc1c(N2CC3C(C)C=CC(N)C3C2)c(F)cc2c(=O)c(C(=O)O)cn(C3CC3)c12 (centres unmarked) [Ref. 2, 7(4-amino-7-methyl-1,3,3a,4,7,7a-hexahydro-isoindol-2-y1)-1-cyclopropyl-6 fluoro-1,4-dihydro-8-methoxy-4-oxo-3-quinolinecarboxylic acid, reference compound]
- MIC (Bac. fragilis ES 25; [2]): 0.25 µg/mL (≈ 0.585 µM)
- MIC (E. coli Neumann; [3]): 0.015 µg/mL (≈ 0.0351 µM)
- MIC (Staph. aureus 133; [4]): 0.015 µg/mL (≈ 0.0351 µM)
- MIC (Ps. aeruginosa Walter; [5]): 1 µg/mL (≈ 2.34 µM)
- MIC (Staph. aureus ICB 25701; [6]): 0.015 µg/mL (≈ 0.0351 µM)

SMILES: NC12CCC(CC1)C1CN(c3c(F)cc4c(=O)c(C(=O)O)cn(C5CC5)c4c3C(F)(F)F)CC12 (centres unmarked) [Example 21, 7-(1-amino-4-azatricyclo[5.2.2.0^2,6]undec-4-yl)-1-cyclopropyl-6-fluoro-1,4-dihydro-4-oxo-8-trifluoromethyl-3-quinolinecarboxylic acid]
- MIC (Bac. fragilis ES 25; [2]): 0.125 µg/mL (≈ 0.261 µM)
- MIC (E. coli Neumann; [3]): 0.015 µg/mL (≈ 0.0313 µM)
- MIC (Staph. aureus 133; [4]): 0.015 µg/mL (≈ 0.0313 µM)
- MIC (Ps. aeruginosa Walter; [5]): 4 µg/mL (≈ 8.34 µM)
- MIC (Staph. aureus ICB 25701; [6]): 0.125 µg/mL (≈ 0.261 µM)
- IC50 [1]: 10 µg/mL (≈ 20.9 µM)

SMILES: CN1COc2c(N3CC4C5CCC(N)(CC5)C4C3)c(F)c(N)c3c(=O)c(C(=O)O)cn1c23 (centres unmarked) [Example 22, 8-amino-10-(1-amino-4-azatricyclo[5.2.2.0^2,6]undecan-4-yl)-9-fluoro-3-methyl-7-oxo-2,3-dihydro-7H-pyrido[1,2,3-d,e][1,3,4]benzoxadiazine-6-carboxylic acid]
- MIC (Bac. fragilis ES 25; 37° C.): 4 µg/mL (≈ 9.02 µM)
- MIC (E. coli Neumann): 0.125 µg/mL (≈ 0.282 µM)
- MIC (Staph. aureus 133): 0.031 µg/mL (≈ 0.0699 µM)
- MIC (Ps. aeruginosa Walter): 8 µg/mL (≈ 18 µM)
- MIC (Staph. aureus ICB 25701; 37° C.): 2 µg/mL (≈ 4.51 µM)
- ID50 (concentration at which DNA synthesis in CHO-KI cells is inhibited by 50%) (CHO-KI cells): 8 µg/mL (≈ 18 µM)

SMILES: NC12C=CC(CC1)C1CN(c3cc4c(cc3F)c(=O)c(C(=O)O)cn4C3CC3)CC12 (centres unmarked) [Example 1, 7-(1-amino-4-aza-tricyclo[5.2.2.0^2,6]undec-8-en-4-yl)-1-cyclopropyl-6-fluoro-1,4-dihydro-4-oxo-3-quinolinecarboxylic acid]
- MIC (Bac. fragilis ES 25; [2]): 16 µg/mL (≈ 39.1 µM)
- MIC (E. coli Neumann; [3]): 0.125 µg/mL (≈ 0.305 µM)
- MIC (Staph. aureus 133; [4]): 0.062 µg/mL (≈ 0.151 µM)
- MIC (Ps. aeruginosa Walter; [5]): 8 µg/mL (≈ 19.5 µM)
- MIC (Staph. aureus ICB 25701; [6]): 8 µg/mL (≈ 19.5 µM)
- IC50 [1]: 24 µg/mL (≈ 58.6 µM)

SMILES: CC1C=CC(N)C2CN(c3c(F)cc4c(=O)c(C(=O)O)cn(C5CC5)c4c3Cl)CC12 (centres unmarked) [Ref. 3, 7(4-amino-7-methyl-1,3,3a,4,7,7a-hexahydro-isoindol-2-yl)-8-chloro-1-cycl propyl-6-fluoro-1,4-dihydro-4-oxo-3-quinolinecarboxylic acid, reference compound]
- MIC (Bac. fragilis ES 25; [2]): 0.125 µg/mL (≈ 0.289 µM)
- MIC (E. coli Neumann; [3]): 0.015 µg/mL (≈ 0.0347 µM)
- MIC (Staph. aureus 133; [4]): 0.015 µg/mL (≈ 0.0347 µM)
- MIC (Ps. aeruginosa Walter; [5]): 0.5 µg/mL (≈ 1.16 µM)
- MIC (Staph. aureus ICB 25701; [6]): 0.015 µg/mL (≈ 0.0347 µM)

SMILES: CNC1C=CC(C)C2CN(c3c(F)cc4c(=O)c(C(=O)O)cn(C5CC5)c4c3Cl)CC12 (centres unmarked) [Ref. 4, 7(7-methyl-4-methylamino-1,3,3a,4,7,7a-hexahydro-isoindol-2-yl)-8-chloro- -cyclopropyl-6-fluoro-1,4-dihydro-4-oxo-3-quinolinecarboxylic acid, reference compound]
- MIC (Bac. fragilis ES 25; [2]): 0.5 µg/mL (≈ 1.12 µM)
- MIC (E. coli Neumann; [3]): 0.03 µg/mL (≈ 0.0673 µM)
- MIC (Staph. aureus 133; [4]): 0.015 µg/mL (≈ 0.0336 µM)
- MIC (Ps. aeruginosa Walter; [5]): 1 µg/mL (≈ 2.24 µM)
- IC50 [1]: 0.1 µg/mL (≈ 0.224 µM)
